Reference: patent publication US20220356163A1, “SMALL MOLECULE INHIBITORS OF Id PROTEINS” (MEMORIAL SLOAN KETTERING CANCER CENTER, priority 2019, published 2022)
“And” between values parts separate entries of the source, which are not always exact repeats. Equal values may be shown once. Read-outs that look alike come from different tables or passages of the source.

Columns and labels:
[1] = molecular target: T1, ID1 (Homo sapiens, UniProt P41134); test: Western blot for ID1 in HUVECs; type: cell-based; design: host or cells: HUVEC; conditions: 0-40 μM, 24 hours
T1 sequence (P41134 1-155): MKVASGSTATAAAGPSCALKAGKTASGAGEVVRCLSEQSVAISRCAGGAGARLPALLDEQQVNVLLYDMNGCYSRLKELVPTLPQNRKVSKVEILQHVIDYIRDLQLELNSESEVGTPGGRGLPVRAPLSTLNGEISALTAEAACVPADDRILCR
Procedure: Immunoblotting. For immunoblotting, cells were collected by trypsinization, washed with PBS and lysed in homogenization buffer (0.3 M sucrose, 10 mM Tris (pH 8.0), 400 mM sodium chloride, 3 mM magnesium chloride, 0.5% NP40/IGEPAL, 100 μg/mL Aprotinin+Protease inhibitor cocktail (Roche #11 836 153 001). Proteins were separated by SDS-PAGE, transferred to a membrane (LI-COR), probed with primary antibodies overnight at 4° C., and probed with secondary antibodies (LI-COR) for 1-2 hours at room temperature. Proteins were visualized using the LI-COR Odyssey Infrared Imaging detection system. The following primary antibodies were used Id1, Id2, Id3, Id4 (195-14, 9-2-8, 17-3, 82-12, respectively, all from Biocheck), Cyclin D1 (2978, Cell Signaling), Actin (A2066, Sigma), Tubulin (T4026, Sigma). Western blot quantification was carried out using channel 700 and channel 800 intensity data from Odyssey application software version 3.0.30 (LI-COR), subtracting blank values and normalizing to Tubulin.
The activity of AGX51 was tested on primary human umbilical vein endothelial cells (HUVECs) and the HCT116 colorectal cancer cell line, two cell types with different ID1-4 expression profiles. […] The effects of AGX51 on ID3 loss in HUVECs was diminished in the 20-40 μM range compared with ID1, consistent with the weaker perturbation observed in the CD spectra.

[2] = Pharmacokinetics in serum after i.p. injection; type: in vivo, mouse
Procedure: Pharmacokinetic analyses. To determine the pharmacokinetic parameters of AGX51, eight-week old male Balb/c mice (Taconic farms) were dosed once by i.p. injection with 30 mg/kg, 50 mg/kg or 100 mg/kg AGX51 prepared in 70% DMSO (n=3 mice per group). Another set of three mice was dosed with 100 mg/kg AGX51 prepared in 100% DMSO. Blood was collected at 30 minutes, 1 hour, 3 hours, 6 hours and 24 hours post AGX51 administration and plasma analyzed via LC-MS as per the protocol previously validated in the MSKCC Antitumor Assessment Core Facility. Following blood collection, the mice were sacrificed via CO2 asphyxiation and the eyes from the 30 mg/kg treatment group were collected and flash frozen for analysis. Data obtained from LC-MS was analyzed via WinNonLin software (version 8.1) for pharmacokinetic parameters.
The determination of the feasibility of administering AGX51 systemically for the treatment of ocular retinopathies was next explored. To determine the half-life of AGX51 in serum, mice were treated by intraperitoneal (i.p.) injection with a single dose of 30 mg/kg or 50 mg/kg AGX51 in 70% DMSO and blood was collected over a 24-hour period. […] Thus, 70% formulations were used in all future studies.

[3] = test system: SK-BR-3; test: MTT assay, SK-BR-3; type: cell-based; conditions: Homo sapiens, 24 h, SK-BR-3, HER-2 +ve cell line, read-out: IC50 value after 24 hours of treatment
Source text: (§1) The 4T1 murine mammary tumor cell line and nine breast cancer cell lines representing the major breast cancer subtypes (ER+, HER2+, and TNBC) including MDA-MB-157, MDA-MB-436, MDA-MB-231, MDA-MB-453, MDA-MB-361, BT-474, SK-BR-3, MCF-7 and T47-D will be grown in RPMI or DMEM (Dulbecco's Modified Eagle Medium) media supplemented with 10% FBS (fetal bovine serum), 1% penicillin-streptomycin and 1% L-Glutamine. Patient derived xenograft cell lines BR7, BR11, and IBT will be established directly from breast cancer bone metastases specimens surgically resected from patients with informed consent. BR7 and BR11 specimens will be obtained from ER positive (HER2 negative and PR negative) metastatic breast cancer patients, while the IBT specimen will be obtained from a metastatic, triple negative breast cancer patient. Fresh tumor tissues will be quickly washed with ice cold PBS and minced into about 1-3 mm pieces in MEM medium (without FBS) using sterile razor blades. […] The cells will be treated with either 100 μM DMSO, AGX51, or a compound of the present technology such as AGX-A. The cell morphology and growth will be monitored daily for 1 week by microscopy for changes in morphology or cell death. […] Absorbance will then measured at 570 nm using a plate reader (Synergy 2, BioTek). […]

[4] = test system: 4T1; test: MTT assay, 4T1; type: cell-based; conditions: Mus musculus
Source text: as §1

[5] = molecular target: T2, Id3 (Homo sapiens, UniProt Q02535); test: Knockdown of Id3 in TFK1 cell cultures; type: cell-based; conditions: TFK1, FIG. 22
T2 construct: endogenous in cells; host or cells: TFK1
Source text: Following the methods described herein (see, e.g., Examples 12-13), AGX-A and AGX51 were compared for their ability to mediate Id knockdown in cell cultures. FIG. 21 illustrates side-by-side comparative effects of AGX51 and AGX-A for knockdown of Id1 in TFK1 cell cultures, and FIG. 22 illustrates side-by-side comparative effects of AGX51 and AGX-A for knockdown of Id3 in TFK1 cell cultures.

T2 sequence (Q02535 whole entry): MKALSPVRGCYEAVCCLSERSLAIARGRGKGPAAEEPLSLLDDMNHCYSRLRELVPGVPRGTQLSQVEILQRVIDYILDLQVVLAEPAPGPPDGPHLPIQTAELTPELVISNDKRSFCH

CCC(=O)N(CCC(c1ccc2c(c1)OCO2)c1ccccc1OC)Cc1ccccc1 (racemic) [AGX51, N-(3-(benzo[d][1,3]dioxol-5-yl)-3-(2-methoxyphenyl)propyl)-N-benzylpropionamide]
concentration at which significant decrease in ID1 protein levels was observed [1]: 10 µM
mean maximum serum concentration ([2]; 30 mg/kg i.p., 70% DMSO): 1.1 μg/mL and 2.7 μM
mean maximum serum concentration ([2]; 50 mg/kg i.p., 70% DMSO): 1.6 μg/mL and 4 μM
mean maximum serum concentration vs lower doses ([2]; 100 mg/kg i.p., 70% DMSO): not increased further
mean serum concentration ([2]; 100 mg/kg i.p., 100% DMSO): ~12 µM
IC50 [3]: 36.6 µM
IC50 ([4]; 24 h, 4T1, MTT, read-out: IC50 value after 24 hours of treatment): 26.7 µM
IC50 ([4]; 4T1 cells, FIG. 7D, read-out: IC50): 26.7 µM

COc1ccccc1C(CCNCc1ccccc1)c1ccc(OC(C)C)cc1 (stereo not drawn) [AGX-A, N-benzyl-3-(4-isopropoxyphenyl)-3-(2-methoxyphenyl)propan-1-anine]
Id3 knockdown potency vs AGX51 [5]: superior anti-Id1 and anti-Id3 potency compared to AGX51
